Consider 18 compounds from US20120122870A1, “Treatment Of Ischemia-Reperfusion Injury” (MUSC FOUNDATION FOR RESEARCH DEVELOPMENT, priority 2009, published 2012).

The test system of one test is endogenous SK activity in MDA-MB-231 cells. As to the kind of experiment: Cellular S1P production (endogenous SK activity) in MDA-MB-231 cells. In kind it is cell-based. The note with it: Homo sapiens, MDA-MB-231, MDA-MB-231 cells incubated with 20 μg/mL of compound; percentage of S1P production inhibited. Here is the method:
Human SK was incubated with 6 μg/mL of the indicated compounds, and then assayed for activity as described above. Values in the column labeled “Recombinant SK (% inhibition)” represent the percentage of SK activity that was inhibited. MDA-MB-231 cells were incubated with 20 μg/mL of the indicated compounds and then assayed for endogenous SK activity as indicated above. Values in the column labeled “Cellular S1P (% inhibition)” represent the percentage of S1P production that was inhibited. Additionally, MDA-MB-231 cells were treated with varying concentration of certain compounds and the amount of S1P produced by the cells was determined. Values in the column labeled “Cellular S1P IC50 (μM)” represent the concentration of compound required to inhibit the production of S1P by 50%. ND=not determined.
On to `O=C(NCc1cccc(OC(F)(F)F)c1)c1nc(-c2ccc(Cl)cc2)cs1` [B43, 4-(4-Chloro-phenyl)-thiazole-2-carboxylic acid 3-trifluoromethoxy-benzylamide], for which the inhibition (commonly the relative decrease from the control value, in per cent) at 20 µg/mL worked out at 0%.

Take `O=C(NCCc1cccc(Oc2ccccc2)c1)c1nc(-c2ccc(Cl)cc2)cs1` [B44, 4-(4-Chloro-phenyl)-thiazole-2-carboxylic acid [2-(3-phenoxy-phenyl)-ethyl]-amide]: the inhibition at 20 µg/mL is 0%.

For the compound `CN1CCCC1CCNC(=O)c1nc(-c2ccc(Cl)cc2)cs1` (stereo not drawn) [B45, 4-(4-Chloro-phenyl)-thiazole-2-carboxylic acid [2-(1-methyl-pyrrolidin-2-yl)-ethyl]-amide], the inhibition at 20 µg/mL was 0%.

For the compound `CN1CCN(NC(=O)c2nc(-c3ccc(Cl)cc3)cs2)CC1` [B46, 4-(4-Chloro-phenyl)-thiazole-2-carboxylic acid (4-methyl-piperazin-1-yl)-amide], the inhibition at 20 µg/mL amounted to 0%.

Compound `Clc1ccc(-c2csc(N(CCCc3ccccc3)CCCc3ccccc3)n2)cc1` [B71, [4-(4-Chloro-phenyl)-thiazol-2-yl]-bis-(3-phenyl-propyl)-amine] had an inhibition at 20 µg/mL of 15%.

`Clc1ccc(-c2csc(N(Cc3ccccc3)Cc3ccccc3)n2)cc1` [B72, Dibenzyl-[4-(4-chloro-phenyl)-thiazol-2-yl]-amine]: the inhibition at 20 µg/mL was 27%.

`O=C(NCCN1CCOCC1)c1nc(-c2ccc(Cl)cc2)cs1` [B76, 4-(4-Chloro-phenyl)-thiazole-2-carboxylic acid (2-morpholin-4-yl-ethyl)-amide] yielded an inhibition at 20 µg/mL of 81%.

`CN1CCCC1CCNC(=O)c1cccc(-c2ccc(Cl)cc2)c1` (stereo not drawn) [B80, 4′-Chloro-biphenyl-3-carboxylic acid [2-(1-methyl-pyrrolidin-2-yl)-ethyl]-amide] came in with an inhibition at 20 µg/mL of 70%.

Take `O=C(NCc1ccncc1)c1cccc(-c2ccc(Cl)cc2)c1` [B81, 4′-Chloro-biphenyl-3-carboxylic acid (pyridin-4-ylmethyl)-amide]: 20 µg/mL produced 14% inhibition.

Take `CN1CCC(NC(=O)c2cccc(-c3ccc(Cl)cc3)c2)CC1` [B82, 4′-Chloro-biphenyl-3-carboxylic acid (1-methyl-piperidin-4-yl)-amide]: the inhibition at 20 µg/mL stood at 67%.

Compound `O=C(Nc1ccc(O)cc1)c1cccc(-c2ccc(Cl)cc2)c1` [B83, 4′-Chloro-biphenyl-3-carboxylic acid (4-hydroxy-phenyl)-amide] returned an inhibition at 20 µg/mL of 55%.

In the case of `O=C(NCCc1ccncc1)c1cccc(-c2ccc(Cl)cc2)c1` [B84, 4′-Chloro-biphenyl-3-carboxylic acid (2-pyridin-4-yl-ethyl)-amide], 20 µg/mL produced 76% inhibition.

As for `O=C(Nc1nc2cc(Cl)ccc2o1)c1ccccc1[N+](=O)[O-]` [B87, N-(5-Chloro-benzooxazol-2-yl)-2-nitro-benzamide], testing at 20 µg/mL gave an inhibition of 64%.

Regarding `O=C(C=Cc1ccccc1)Nc1nc2cc(Cl)ccc2o1` [B88, N-(5-Chloro-benzooxazol-2-yl)-3-phenyl-acrylamide], the inhibition at 20 µg/mL amounted to 46%.

On to `O=C(C=Cc1ccc([N+](=O)[O-])cc1)Nc1nc2cc(Cl)ccc2o1` [B89, N-(5-Chloro-benzooxazol-2-yl)-3-(4-nitro-phenyl)-acrylamide], for which 20 µg/mL produced 74% inhibition.

`C=CCCCCCCCCC(=O)Nc1nc2cc(Cl)ccc2o1` [B90, Undec-10-enoic acid (5-chloro-benzooxazol-2-yl)-amide] gave an inhibition at 20 µg/mL of 39%.

`CCCCCCCCCCCCCC(=O)Nc1nc2cc(Cl)ccc2o1` [B91, Tetradecanoic acid (5-chloro-benzooxazol-2-yl)-amide] came in with an inhibition at 20 µg/mL of 0%.

Regarding `CCCCCCCCCCCCCCCC(=O)Nc1nc2cc(Cl)ccc2o1` [B92, Hexadecanoic acid (5-chloro-benzooxazol-2-yl)-amide], the inhibition at 20 µg/mL is 4%.

The same test, now with this note: Homo sapiens; MDA-MB-231 cells, varying concentrations; concentration inhibiting S1P production by 50%.
Regarding `O=C(NCCN1CCOCC1)c1nc(-c2ccc(Cl)cc2)cs1` [B76, 4-(4-Chloro-phenyl)-thiazole-2-carboxylic acid (2-morpholin-4-yl-ethyl)-amide], the IC50 (usually the concentration that gives 50% inhibition) is 5 µM.

Turning to `O=C(Nc1nc2cc(Cl)ccc2o1)c1ccccc1[N+](=O)[O-]` [B87, N-(5-Chloro-benzooxazol-2-yl)-2-nitro-benzamide], the 50% inhibitory concentration (IC50) is 22 µM.

The compound `O=C(C=Cc1ccc([N+](=O)[O-])cc1)Nc1nc2cc(Cl)ccc2o1` [B89, N-(5-Chloro-benzooxazol-2-yl)-3-(4-nitro-phenyl)-acrylamide] displayed an IC50 of 5.8 µM.
